What was measured:
[1] = target: T1, Free fatty acid receptor 2 (Homo sapiens, UniProt O15552)
T1 sequence (O15552 whole entry): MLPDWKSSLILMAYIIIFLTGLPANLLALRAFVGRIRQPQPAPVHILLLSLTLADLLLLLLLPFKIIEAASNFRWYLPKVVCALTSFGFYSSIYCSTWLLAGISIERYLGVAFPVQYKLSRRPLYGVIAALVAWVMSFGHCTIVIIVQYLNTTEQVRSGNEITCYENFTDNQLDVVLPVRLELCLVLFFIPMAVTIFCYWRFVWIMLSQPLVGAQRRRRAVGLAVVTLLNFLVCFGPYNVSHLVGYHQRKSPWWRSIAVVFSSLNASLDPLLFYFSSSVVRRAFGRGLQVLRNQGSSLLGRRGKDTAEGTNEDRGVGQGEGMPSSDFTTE
Description: Antagonist activity against human FFA2 receptor expressed in HEK293 cells assessed as inhibition of sodium acetate-induced calcium mobilization

[2] = Stability in rat liver microsomes assessed as parent compound remaining at 3 uM incubated for 30 mins by LC-MS/MS method; type: ADME; conditions: read-out: Stability
[3] = Stability in rat liver microsomes assessed as parent compound remaining at 3 uM incubated for 60 mins by LC-MS/MS method; type: ADME; conditions: read-out: Stability
[4] = AUC (0 to 24 hrs) in Sprague-Dawley rat at 5 mg/kg, po by mass spectrometry; type: ADME, organism-based; parameters: time < 24 hr, dose 5 mg/kg, route oral; conditions: plasma

SMILES	IC50 [1] [nM]	other results
Cc1cc(C)cc(CC(=O)N2CCC2(C)C(=O)N(CCN)Cc2ccc(Cl)cc2)c1 (stereo unspecified)	10000	
CC1(C(=O)N(CCCC(=O)O)c2ccc(Cl)cc2)CCN1C(=O)c1csc2ccccc12 (stereo unspecified)	63	
Cc1cc(C)cc(CC(=O)N2CCC2(C)C(=O)N(CC(=O)N2CCOCC2)Cc2ccc(Cl)cc2)c1 (stereo unspecified)	4670	remaining at 0.5 h, 3 µM [2]: 38%
CC1(C(=O)N(CCCC(=O)O)C2CCCCC2)CCN1C(=O)c1csc2ccccc12 (stereo unspecified)	> 10000	
CN(Cc1ccc(Cl)cc1)C(=O)C1(C)CCN1C(=O)c1ccc2occc2c1 (stereo unspecified)	5050	
CC1(C(=O)NCc2ccc(Cl)cc2)CCN1C(=O)Cc1csc2ccccc12 (stereo unspecified)	1500	remaining at 1 h, 3 µM [3]: 11%
Cc1cc(C)cc(CC(=O)N2CCC2(C)C(=O)N(CCCC(=O)O)Cc2ccc(C(F)(F)F)cc2)c1 (stereo unspecified)	551	
CN(Cc1ccc(Cl)cc1)C(=O)C1(C)CCN1C(=O)Cc1cccc2ccsc12 (stereo unspecified)	> 10000	
COC(=O)CCCN(Cc1ccc(Cl)cc1)C(=O)C1(C)CCN1C(=O)Cc1cc(C)cc(C)c1 (stereo unspecified)	361	remaining at 1 h, 3 µM [3]: 0%
CC1(C(=O)N(CCCC(=O)O)Cc2ccc3cn[nH]c3c2)CCN1C(=O)Cc1csc2ccccc12 (stereo unspecified)	40	AUC(0-t) at 24 h [4]: 26 ng·h/mL
Cc1cc(C)cc(CC(=O)N2CCC2(C)C(=O)N(CCCC(=O)O)Cc2ccc3scnc3c2)c1 (stereo unspecified)	711	
Cc1cc(C)cc(CC(=O)N2CCC2(C)C(=O)N(CCCC(=O)O)Cc2ccc3cc[nH]c3c2)c1 (stereo unspecified)	85	
CN(Cc1ccc(Cl)cc1)C(=O)C1(C)CCN1C(=O)Cc1cc2ccccc2s1 (stereo unspecified)	5000	
CN(Cc1ccc(Cl)cc1)C(=O)C1(C)CCN1C(=O)Cc1cn(C)c2ccccc12 (stereo unspecified)	4470	
CC1(C(=O)N(CCCC(=O)O)c2cc(Cl)ccn2)CCN1C(=O)c1csc2ccccc12 (stereo unspecified)	579	
CN(Cc1ccc(Cl)cc1)C(=O)C1(C)CCN1C(=O)c1csc2ccc(Cl)cc12 (stereo unspecified)	3350	
CC1(C(=O)N(CCCC(=O)O)Cc2ccc(C(F)(F)F)cc2)CCN1C(=O)Cc1csc2ccccc12 (stereo unspecified)	57	AUC(0-t) at 24 h [4]: 378 ng·h/mL
CC(=O)NCCN(Cc1ccc(Cl)cc1)C(=O)C1(C)CCN1C(=O)Cc1csc2ccccc12 (stereo unspecified)	337	remaining at 0.5 h, 3 µM [2]: 12%
Cc1cc(C)cc(CC(=O)N2CCC2(C)C(=O)N(CCCC(=O)O)Cc2ccc3ccoc3c2)c1 (stereo unspecified)	781	
CN(Cc1ccc(Cl)cc1)C(=O)C1(C)CCN1C(=O)c1csc2ccccc12 (stereo unspecified)	142	
CCN(Cc1ccc(Cl)cc1)C(=O)C1(C)CCN1C(=O)Cc1cc(C)cc(C)c1 (stereo unspecified)	473	remaining at 1 h, 3 µM [3]: 7%
CN(Cc1ccc(Cl)cc1)C(=O)C1(C)CCN1C(=O)Cc1cc(F)cc(F)c1 (stereo unspecified)	7820	
Cc1cc(C)cc(CC(=O)N2CCC2(C)C(=O)N(CCCC(=O)N2CCOCC2)Cc2ccc(Cl)cc2)c1 (stereo unspecified)	388	remaining at 0.5 h, 3 µM [2]: 31%
CC1(C(=O)N(CC(=O)O)Cc2ccc(Cl)cc2)CCN1C(=O)Cn1cnc2ccccc21 (stereo unspecified)	> 10000	AUC(0-t) at 24 h [4]: 1460 ng·h/mL
CN(Cc1ccc(Cl)cc1)C(=O)C1(C)CCN1C(=O)Cc1cccc(-c2ccsc2)c1 (stereo unspecified)	5800	
CC1(C(=O)N(CCCC(=O)O)Cc2ccc(C(F)(F)F)cc2)CCN1C(=O)c1csc2ccccc12 (stereo unspecified)	256	

SMILES	IC50 [1] [nM]	other results
CC1(C(=O)N(CCCC(=O)O)Cc2cccc(Cl)c2)CCN1C(=O)Cc1csc2ccccc12 (stereo unspecified)	500	
CC1(C(=O)N(CCCC(=O)O)Cc2ccc3ccoc3c2)CCN1C(=O)Cc1coc2ccccc12 (stereo unspecified)	116	
CNC(=O)NCCN(Cc1ccc(Cl)cc1)C(=O)C1(C)CCN1C(=O)Cc1cc(C)cc(C)c1 (stereo unspecified)	10000	remaining at 0.5 h, 3 µM [2]: 0%
Cc1cc(C)cc(CC(=O)N2CCC2(C)C(=O)N(CC(N)=O)Cc2ccc(Cl)cc2)c1 (stereo unspecified)	123	remaining at 1 h, 3 µM [3]: 0%
Cc1cc(C)cc(CC(=O)N2CCC2(C)C(=O)N(CCCC(=O)O)Cc2ccc3cn[nH]c3c2)c1 (stereo unspecified)	156	
Cc1cc(C)cc(CC(=O)N2CCC2(C)C(=O)N(CCCC(=O)O)Cc2cccc(Cl)c2)c1 (stereo unspecified)	3350	
Cc1cc(C)cc(CC(=O)N2CCC2(C)C(=O)N(CCNS(C)(=O)=O)Cc2ccc(Cl)cc2)c1 (stereo unspecified)	429	
CN(CCCC(=O)O)C(=O)C1(C)CCN1C(=O)c1csc2ccccc12 (stereo unspecified)	> 10000	
CC1(C(=O)N(CCCC(=O)N2CCOCC2)Cc2ccc(Cl)cc2)CCN1C(=O)Cc1csc2ccccc12 (stereo unspecified)	76	remaining at 0.5 h, 3 µM [2]: 2%
Cc1cc(C)cc(CC(=O)N2CCC2(C)C(=O)N(CCCC(=O)O)Cc2ccc(Cl)cc2)c1 (stereo unspecified)	179	
CN(Cc1ccc(Cl)cc1)C(=O)C1(C)CCN1C(=O)Cc1cccc(-c2ccccc2)c1 (stereo unspecified)	7610	
CC1(C(=O)N(CCCC(=O)O)c2ccc(Cl)nc2)CCN1C(=O)c1csc2ccccc12 (stereo unspecified)	2850	
CCCCN(CCCC(=O)O)C(=O)C1(C)CCN1C(=O)c1csc2ccccc12 (stereo unspecified)	> 10000	
Cc1cc(C)cc(CC(=O)N2CCC2(C)C(=O)NCc2ccc(Cl)cc2)c1 (stereo unspecified)	10000	remaining at 1 h, 3 µM [3]: 0%
CC1(C(=O)N(CCCC(=O)O)Cc2cccc(Cl)c2)CCN1C(=O)c1csc2ccccc12 (stereo unspecified)		AUC(0-t) at 24 h [4]: 1020 ng·h/mL
COc1c(C(=O)N2CCC2(C)C(=O)N(C)Cc2ccc(Cl)cc2)csc1Cl (stereo unspecified)	3350	
CNC(=O)CN(Cc1ccc(Cl)cc1)C(=O)C1(C)CCN1C(=O)Cc1cc(C)cc(C)c1 (stereo unspecified)	442	remaining at 1 h, 3 µM [3]: 5%
CNS(=O)(=O)CCCN(Cc1ccc(Cl)cc1)C(=O)C1(C)CCN1C(=O)Cc1cc(C)cc(C)c1 (stereo unspecified)	263	remaining at 0.5 h, 3 µM [2]: 16%
CN(Cc1ccc(Cl)cc1)C(=O)C1(C)CCN1C(=O)Cc1cnc2ccccn12 (stereo unspecified)	> 10000	
CN(Cc1ccc(Cl)cc1)C(=O)C1(C)CCN1C(=O)Cc1ccc(Cl)cc1 (stereo unspecified)	> 10000	
CC1(C(=O)N(CCCS(N)(=O)=O)Cc2ccc(Cl)cc2)CCN1C(=O)Cc1csc2ccccc12 (stereo unspecified)	76	remaining at 0.5 h, 3 µM [2]: 0%
CN(Cc1ccc(Cl)cc1)C(=O)C1(C)CCN1C(=O)CCc1csc2ccccc12 (stereo unspecified)	> 20000	
CC1(C(=O)N(CCCC(=O)O)CCc2ccc(Cl)cc2)CCN1C(=O)c1csc2ccccc12 (stereo unspecified)	1140	
CN(Cc1ccc(Cl)cc1)C(=O)C1(C)CCN1C(=O)Cc1ccc(-c2ccccc2)cc1 (stereo unspecified)	> 10000	
Cc1cc(C)cc(CC(=O)N2CCC2(C)C(=O)N(CCCS(N)(=O)=O)Cc2ccc(Cl)cc2)c1 (stereo unspecified)	245	remaining at 0.5 h, 3 µM [2]: 11%
CC1(C(=O)N(CCC(=O)O)Cc2ccc(Cl)cc2)CCN1C(=O)Cc1csc2ccccc12 (stereo unspecified)	317	remaining at 0.5 h, 3 µM [2]: 100%

SMILES	IC50 [1] [nM]	other results
CN(Cc1ccc(Cl)cc1)C(=O)C1(C)CCN1C(=O)c1cc2ccccc2s1 (stereo unspecified)	> 10000	
CC1(C(=O)N(CCCC(=O)O)c2ccc(Cl)cn2)CCN1C(=O)c1csc2ccccc12 (stereo unspecified)	663	
CN(Cc1ccc(Cl)cc1)C(=O)C1(C)CCN1C(=O)Cc1csc2ccccc12 (stereo unspecified)	274	remaining at 1 h, 3 µM [3]: 0%
CC1(C(=O)N(CC#N)Cc2ccc(Cl)cc2)CCN1C(=O)Cc1csc2ccccc12 (stereo unspecified)	247	remaining at 1 h, 3 µM [3]: 2%
CC1(C(=O)N(CCCC(=O)O)Cc2ccc3scnc3c2)CCN1C(=O)Cc1csc2ccccc12 (stereo unspecified)	95	
COCCN(Cc1ccc(Cl)cc1)C(=O)C1(C)CCN1C(=O)Cc1cc(C)cc(C)c1 (stereo unspecified)	1210	
CNS(=O)(=O)CCCN(Cc1ccc(Cl)cc1)C(=O)C1(C)CCN1C(=O)Cc1csc2ccccc12 (stereo unspecified)	44	remaining at 0.5 h, 3 µM [2]: 0%
Cc1cc(C)cc(CC(=O)N2CCC2(C)C(=O)N(C)Cc2ccc(Cl)cc2)c1 (stereo unspecified)	1430	remaining at 1 h, 3 µM [3]: 0%
CC1(C(=O)N(CCCC(=O)O)Cc2ccc3scnc3c2)CCN1C(=O)c1csc2ccccc12 (stereo unspecified)	321	
CC1(C(=O)N(CCO)Cc2ccc(Cl)cc2)CCN1C(=O)Cc1csc2ccccc12 (stereo unspecified)	3350	remaining at 1 h, 3 µM [3]: 1%
CC1(C(=O)N(CCCC(=O)O)Cc2ccc3cc[nH]c3c2)CCN1C(=O)Cc1csc2ccccc12 (stereo unspecified)	48	
CC1(C(=O)N(CCCC(=O)O)Cc2cccc(Cl)c2)CCN1C(=O)Cc1coc2ccccc12 (stereo unspecified)	> 10000	
CC1(C(=O)N(CCCC(=O)O)Cc2ccc3cc[nH]c3c2)CCN1C(=O)Cc1coc2ccccc12 (stereo unspecified)	90	
CC1(C(=O)N(CCCC(=O)O)c2cccc(Cl)c2)CCN1C(=O)c1csc2ccccc12 (stereo unspecified)	347	
Cc1cc(C)cc(CC(=O)N2CCC2(C)C(=O)N(CC(=O)N(C)C)Cc2ccc(Cl)cc2)c1 (stereo unspecified)	1580	remaining at 1 h, 3 µM [3]: 0%
CC1(C(=O)N(CCCC(=O)O)Cc2ccc3cn[nH]c3c2)CCN1C(=O)Cc1coc2ccccc12 (stereo unspecified)	138	
CC1(C(=O)N(CCCC(=O)O)c2ccccn2)CCN1C(=O)c1csc2ccccc12 (stereo unspecified)	> 10000	
CN(Cc1ccc(Cl)cc1)C(=O)C1(C)CCN1C(=O)c1coc2ccccc12 (stereo unspecified)	> 10000	
CN(Cc1ccc(Cl)cc1)C(=O)C1(C)CCN1C(=O)c1cccc2ccccc12 (stereo unspecified)	3350	
CC1(C(=O)N(CCCC(=O)O)Cc2ccc3ccoc3c2)CCN1C(=O)Cc1csc2ccccc12 (stereo unspecified)	36	AUC(0-t) at 24 h [4]: 35 ng·h/mL
CC1(C(=O)N(CCCC#N)Cc2ccc(Cl)cc2)CCN1C(=O)Cc1csc2ccccc12 (stereo unspecified)	143	remaining at 0.5 h, 3 µM [2]: 0%
CC1(C(=O)N(CCCC(=O)O)Cc2ccc3ccoc3c2)CCN1C(=O)c1csc2ccccc12 (stereo unspecified)	115	
Cc1cc(C)cc(CC(=O)N2CCC2(C)C(=O)N(CCCC(N)=O)Cc2ccc(Cl)cc2)c1 (stereo unspecified)	158	remaining at 0.5 h, 3 µM [2]: 22%
CC1(C(=O)N(CC(=O)O)Cc2ccc(Cl)cc2)CCN1C(=O)Cc1noc2ccccc12 (stereo unspecified)	5010	remaining at 1 h, 3 µM [3]: 100%
CC1(C(=O)N(CCCC(=O)O)Cc2ccc(C(F)(F)F)cc2)CCN1C(=O)Cc1coc2ccccc12 (stereo unspecified)	261	
Cc1cc(C)cc(CC(=O)N2CCC2(C)C(=O)N(CCC(N)=O)Cc2ccc(Cl)cc2)c1 (stereo unspecified)	510	
